One series deals with Histone deacetylase. The experiment in a line: Inhibition of HDAC in human HeLa cells assessed as histone H3 hyperacetylation. It counts as cell-based.
Series [1] relates to HCT-116. The experiment in a line: Cytotoxicity against human HCT116 cells. The format is functional, cell-based.
The subject of another series is U226. The series can be described thus: (§1) Cytotoxicity against human […] cells. The format is functional, cell-based.
Series [2] is described as follows: as §1. The format is functional, cell-based.
Series [3] has as its target Voltage-gated inwardly rectifying potassium channel KCNH2 (Homo sapiens, UniProt Q12809). The experiment in a line: Inhibition of human ERG by patch-clamp assay.
In a further series the target is Cytochrome P450 2C9 (Homo sapiens, UniProt P11712). The experiment in a line: Inhibition of CYP2C9. The format is ADME.
Another series has as its target Cytochrome P450 2C19 (Homo sapiens, UniProt P33261). The experiment in a line: Inhibition of CYP2C19. It counts as ADME.
The target of a further series is Cytochrome P450 2D6 (Homo sapiens, UniProt P10635). The experiment in a line: Inhibition of CYP2D6. The format is ADME.
Series [4] has as its system Mus musculus. The series can be described thus: Induction of histone H3 hyperacetylation in human HCT116 cells xenografted in nude mouse at 50 mg/kg, po by immunoblotting relative to control. The format is functional, HCT-116.
A short description of series [5]: Aqueous solubility of the compound. It counts as physicochemical. The note with it: buffer.
Another series has as its target Cytochrome P450 3A4 (Homo sapiens, UniProt P08684). The experiment in a line: Inhibition of CYP3A4. The format is ADME.
A further series concerns the target T1, Cytochrome P450 1A2 (Homo sapiens, UniProt P05177).
T1 sequence (P05177 whole entry): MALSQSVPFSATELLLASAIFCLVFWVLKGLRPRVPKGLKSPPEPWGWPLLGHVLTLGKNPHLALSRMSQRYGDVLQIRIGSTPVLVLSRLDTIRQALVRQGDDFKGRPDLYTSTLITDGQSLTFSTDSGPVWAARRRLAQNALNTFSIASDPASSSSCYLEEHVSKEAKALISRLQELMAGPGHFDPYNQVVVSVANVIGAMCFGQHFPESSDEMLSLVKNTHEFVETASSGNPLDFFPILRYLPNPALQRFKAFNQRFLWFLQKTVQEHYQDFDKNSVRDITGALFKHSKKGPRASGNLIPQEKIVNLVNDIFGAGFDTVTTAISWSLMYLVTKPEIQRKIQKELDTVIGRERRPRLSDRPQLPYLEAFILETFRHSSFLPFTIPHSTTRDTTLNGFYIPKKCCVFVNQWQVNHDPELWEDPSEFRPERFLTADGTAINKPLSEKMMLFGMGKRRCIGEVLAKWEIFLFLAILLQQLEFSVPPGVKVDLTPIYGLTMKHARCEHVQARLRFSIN
The series can be described thus: Inhibition of CYP1A2. The format is ADME.

For a further series, the system named is HL-60. The experiment in a line: Cytotoxicity against human HL60 cells. It counts as functional, cell-based.
The subject of another series is NCI-H460. The series can be described thus: Cytotoxicity against human H460 cells. The format is functional, cell-based.
Another series deals with PC-3. The experiment in a line: Cytotoxicity against human PC3 cells. The format is functional, cell-based.
In a further series the test system is SK-OV-3. The series can be described thus: Cytotoxicity against human SKOV3 cells. It counts as functional, cell-based.
The next series concerns 786-0. The series can be described thus: Cytotoxicity against human 786-0 cells. The format is functional, cell-based.
Series [6] can be described thus: Cytotoxicity against human MJ cells. It counts as functional, cell-based.
In series [7] the test system is HCT-116. The experiment in a line: Antitumor activity against human HCT116 cells xenografted in nude mouse assessed as tumor growth inhibition at 42 mg/kg, po QOD for 14 days relative to control. The format is functional. Also noted: scale not given: the % may be the effect or the level left.
Series [8] concerns HCT-116. The experiment in a line: Antitumor activity against human HCT116 cells xenografted in nude mouse assessed as tumor growth inhibition at 84 mg/kg, po QOD for 14 days relative to control. The format is functional. Also noted: scale not given: the % may be the effect or the level left.
In the next series the test system is HT-29. The experiment in a line: Cytotoxicity against human HT-29 cells. It counts as functional, cell-based.
Series [9] deals with Mus musculus. The experiment in a line: Induction of histone H3 hyperacetylation in human HCT116 cells xenografted in nude mouse at 42 mg/kg, iv by immunoblotting relative to control. It counts as functional, HCT-116.
The subject of series [10] is Mus musculus. The experiment in a line: Induction of histone H3 hyperacetylation in human HCT116 cells xenografted in nude mouse at 42 mg/kg, po by immunoblotting relative to control. The format is functional, HCT-116.
In a further series the test system is MDA-MB-435. The experiment in a line: Cytotoxicity against human MDA-MB-435 cells. The format is functional, cell-based.
Series [11] deals with Mus musculus. The series can be described thus: Induction of histone H3 hyperacetylation in human HCT116 cells xenografted in nude mouse at 30 mg/kg, po after 4 hrs by immunoblotting relative to control. The format is functional, organism-based. Also noted: dose 30 mg/kg. The settings on record: HCT-116.
The test system of series [12] is Mus musculus. The series can be described thus: Induction of histone H3 hyperacetylation in human HCT116 cells xenografted in nude mouse at 30 mg/kg, po after 8 hrs by immunoblotting relative to control. The format is functional, organism-based. Also noted: dose 30 mg/kg. The settings on record: HCT-116.

≈ marks a conversion by molar mass, not a printed value. Calls of active or inactive are those of the source. The calls are words filed in the database; no cut-off is given here.

Cytochrome P450 2D6, sequence (P10635 whole entry): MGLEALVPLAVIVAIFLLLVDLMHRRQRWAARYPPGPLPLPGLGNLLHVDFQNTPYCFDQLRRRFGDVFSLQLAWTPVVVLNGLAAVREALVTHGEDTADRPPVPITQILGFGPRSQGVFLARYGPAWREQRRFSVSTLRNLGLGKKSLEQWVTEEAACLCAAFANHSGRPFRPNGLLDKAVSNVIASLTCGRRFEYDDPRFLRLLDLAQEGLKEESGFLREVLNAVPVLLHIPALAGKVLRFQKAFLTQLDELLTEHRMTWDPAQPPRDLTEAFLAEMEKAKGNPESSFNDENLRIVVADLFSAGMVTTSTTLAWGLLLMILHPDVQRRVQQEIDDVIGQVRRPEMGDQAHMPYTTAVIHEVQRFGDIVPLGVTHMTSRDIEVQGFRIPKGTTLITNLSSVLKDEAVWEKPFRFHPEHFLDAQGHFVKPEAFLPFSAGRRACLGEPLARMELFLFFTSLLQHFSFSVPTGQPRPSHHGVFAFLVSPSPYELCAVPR
Cytochrome P450 2C19, sequence (P33261 whole entry): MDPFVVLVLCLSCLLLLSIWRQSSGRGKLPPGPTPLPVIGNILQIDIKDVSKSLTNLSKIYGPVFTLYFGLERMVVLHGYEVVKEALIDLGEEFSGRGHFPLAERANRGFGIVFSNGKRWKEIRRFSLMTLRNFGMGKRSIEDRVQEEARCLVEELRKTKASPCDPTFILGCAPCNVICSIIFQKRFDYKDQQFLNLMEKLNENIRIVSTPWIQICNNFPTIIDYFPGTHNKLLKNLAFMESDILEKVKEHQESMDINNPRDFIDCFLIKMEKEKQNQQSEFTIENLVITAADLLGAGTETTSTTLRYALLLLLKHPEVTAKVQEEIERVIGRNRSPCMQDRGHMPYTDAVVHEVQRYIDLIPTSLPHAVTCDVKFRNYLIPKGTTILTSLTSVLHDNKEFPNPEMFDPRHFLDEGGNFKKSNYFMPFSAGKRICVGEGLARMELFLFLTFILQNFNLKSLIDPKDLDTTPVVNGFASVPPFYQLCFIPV
Cytochrome P450 2C9, sequence (P11712 whole entry): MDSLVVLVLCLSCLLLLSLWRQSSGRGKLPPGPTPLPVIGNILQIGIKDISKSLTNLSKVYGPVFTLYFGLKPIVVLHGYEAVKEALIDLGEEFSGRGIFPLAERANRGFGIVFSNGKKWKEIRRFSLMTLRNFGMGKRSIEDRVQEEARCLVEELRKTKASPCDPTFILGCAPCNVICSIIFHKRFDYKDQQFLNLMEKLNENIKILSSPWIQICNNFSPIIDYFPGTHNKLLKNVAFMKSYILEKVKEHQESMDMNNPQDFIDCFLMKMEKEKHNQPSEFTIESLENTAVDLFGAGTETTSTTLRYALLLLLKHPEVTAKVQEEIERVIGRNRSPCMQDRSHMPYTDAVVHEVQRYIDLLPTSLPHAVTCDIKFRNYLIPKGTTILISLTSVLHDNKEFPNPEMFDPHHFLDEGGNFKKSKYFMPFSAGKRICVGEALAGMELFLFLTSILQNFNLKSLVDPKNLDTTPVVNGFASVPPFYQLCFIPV
Voltage-gated inwardly rectifying potassium channel KCNH2, sequence (Q12809 whole entry): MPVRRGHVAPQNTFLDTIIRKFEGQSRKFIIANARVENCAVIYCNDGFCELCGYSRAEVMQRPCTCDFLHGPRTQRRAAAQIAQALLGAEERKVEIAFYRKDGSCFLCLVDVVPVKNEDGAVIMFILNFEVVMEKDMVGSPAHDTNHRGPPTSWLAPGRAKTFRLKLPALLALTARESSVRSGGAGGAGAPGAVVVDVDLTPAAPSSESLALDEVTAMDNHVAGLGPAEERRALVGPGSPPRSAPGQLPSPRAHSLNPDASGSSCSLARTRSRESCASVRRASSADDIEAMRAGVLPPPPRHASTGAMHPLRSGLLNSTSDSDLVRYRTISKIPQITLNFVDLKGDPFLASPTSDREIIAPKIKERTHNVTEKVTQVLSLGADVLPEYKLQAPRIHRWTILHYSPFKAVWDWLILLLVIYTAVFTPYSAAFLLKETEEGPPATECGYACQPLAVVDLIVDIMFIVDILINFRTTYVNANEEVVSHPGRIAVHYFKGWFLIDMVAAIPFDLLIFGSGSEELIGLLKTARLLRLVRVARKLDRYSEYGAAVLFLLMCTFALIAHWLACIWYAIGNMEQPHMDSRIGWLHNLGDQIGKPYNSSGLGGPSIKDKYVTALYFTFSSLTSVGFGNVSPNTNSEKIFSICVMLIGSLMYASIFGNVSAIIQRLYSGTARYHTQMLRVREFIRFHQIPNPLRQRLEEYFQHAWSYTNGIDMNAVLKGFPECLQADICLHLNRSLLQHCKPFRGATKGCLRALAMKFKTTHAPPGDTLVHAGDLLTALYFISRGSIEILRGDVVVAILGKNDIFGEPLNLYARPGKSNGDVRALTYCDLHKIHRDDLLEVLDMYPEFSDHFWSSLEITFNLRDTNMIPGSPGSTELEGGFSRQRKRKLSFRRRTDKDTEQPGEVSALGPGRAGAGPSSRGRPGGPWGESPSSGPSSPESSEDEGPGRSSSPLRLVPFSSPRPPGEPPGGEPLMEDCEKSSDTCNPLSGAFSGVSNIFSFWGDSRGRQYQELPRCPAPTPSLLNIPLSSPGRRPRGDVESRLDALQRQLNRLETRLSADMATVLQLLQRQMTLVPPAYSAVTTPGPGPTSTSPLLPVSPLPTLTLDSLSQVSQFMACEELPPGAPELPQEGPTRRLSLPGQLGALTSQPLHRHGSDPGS
Cytochrome P450 3A4, sequence (P08684 whole entry): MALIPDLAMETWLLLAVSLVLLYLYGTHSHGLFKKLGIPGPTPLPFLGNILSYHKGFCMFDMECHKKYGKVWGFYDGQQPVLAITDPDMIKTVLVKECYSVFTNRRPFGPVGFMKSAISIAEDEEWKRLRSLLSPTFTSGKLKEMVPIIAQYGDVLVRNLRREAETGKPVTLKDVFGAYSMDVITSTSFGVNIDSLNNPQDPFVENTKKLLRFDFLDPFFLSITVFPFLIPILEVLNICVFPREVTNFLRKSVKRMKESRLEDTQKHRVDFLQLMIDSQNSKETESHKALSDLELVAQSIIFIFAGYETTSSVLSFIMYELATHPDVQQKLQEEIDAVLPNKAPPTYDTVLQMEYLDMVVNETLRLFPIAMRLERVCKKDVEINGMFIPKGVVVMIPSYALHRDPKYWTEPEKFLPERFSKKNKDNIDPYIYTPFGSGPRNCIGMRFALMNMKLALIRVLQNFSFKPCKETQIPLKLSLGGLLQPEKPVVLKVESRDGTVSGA

As to `CC(=O)SCC(=O)c1ccc(NS(=O)(=O)c2ccc(OCCCc3ccccn3)cc2)nc1`, on Histone deacetylase, the concentration for a half-maximal effect (EC50) was 220 nM.

Turning to `CC(=O)SCC(=O)c1ccc(NS(=O)(=O)c2ccc(OCCN(C)C)cc2)nc1`, the EC50 in the series with HCT-116 [1] worked out at 660 nM; at Histone deacetylase, 93 nM. For the same molecule, the outcome with U226 was inactive.

For `CC(=O)SCC(=O)c1ccc(NS(=O)(=O)c2ccc(OCCCN3CCCC3)cc2)nc1`, the EC50 in the series on HCT-116 [1] was 820 nM; in series [2], 400 nM; on Histone deacetylase, 61 nM.

With `CC(=O)SCC(=O)c1ccc(NS(=O)(=O)c2ccc3c(c2)COOC3)nc1`, the EC50 in [3] is above 30000 nM; at Cytochrome P450 2C9 it was 10000 nM; on Cytochrome P450 2C19, above 50000 nM; with HCT-116 [1] it was 1200 nM; at Cytochrome P450 2D6, above 50000 nM; in series [2], 2000 nM. Moreover, the figures for the concentration giving a half-maximal response (EC50) on Cytochrome P450 3A4, at Cytochrome P450 1A2 and at Histone deacetylase were above 50000 nM, above 50000 nM and 38 nM, respectively. In addition, in the series with Mus musculus [4], the “fold change (FC)” value was found to be 5. Further, the concentration in solution in [5] (solubility) was 200 µg/mL (≈ 490 µM).

On to `CC(=O)SCC(=O)c1ccc(NS(=O)(=O)c2ccc(OCCCCN(C)C)cc2)nc1`, for which the EC50 with HCT-116 [1] came to 280 nM; in [2], 120 nM; at Histone deacetylase, 29 nM.

Consider `COCCCOc1ccc(S(=O)(=O)Nc2ccc(C(=O)CSC(C)=O)cn2)cc1`, for which the values for the EC50 (in the series on HCT-116 [1]; in [2]; at Histone deacetylase) were 5300 nM, 29000 nM and 120 nM, respectively.

Consider `CC(=O)SCC(=O)c1ccc(NS(=O)(=O)c2ccc(OCCCO)cc2)nc1`, for which the EC50 with HCT-116 [1] was 8600 nM; on Histone deacetylase, 110 nM.

Take `CC(=O)SCC(=O)c1ccc(NS(=O)(=O)c2ccc(OC3CCCN(C)C3)cc2)nc1` (stereo not given): the values for the EC50 (with HCT-116 [1]; in series [2]; on Histone deacetylase) were 3700 nM, 1200 nM and 110 nM, respectively.

Take `COc1cccc(S(=O)(=O)Nc2ccc(C(=O)CSC(C)=O)cn2)c1`: the values for the EC50 with HCT-116 [1] and at Histone deacetylase were 4300 nM and 190 nM, respectively.

`CC(=O)SCC(=O)c1ccc(NS(=O)(=O)c2ccc(OCCc3ccccn3)cc2)nc1`: the EC50 was determined as 750 nM with HCT-116 [1], 9600 nM in series [2] and 190 nM at Histone deacetylase.

For the molecule `CC(=O)SCC(=O)c1ccc(NS(=O)(=O)c2ccc(OCCCN3CCOCC3)cc2)nc1`, the results for the EC50 (in the series on HCT-116 [1]; in [2]; on Histone deacetylase) were 330 nM, 19000 nM and 67 nM, respectively.

For `CC(=O)SCC(=O)c1ccc(NS(=O)(=O)c2ccc(OCCCN(C)C)cc2)nc1` [listing 1 of 2 here], the EC50 in the series on HL-60 was 390 nM; in the series on NCI-H460, 230 nM; in the series on PC-3, 740 nM; with HCT-116 [1], 140 nM; in the series with SK-OV-3, 760 nM; in the series with 786-0, 590 nM. For the same molecule, the EC50 in [6] came out at 170 nM; in the series with HT-29, 1000 nM; in series [2], 180 nM; in the series on MDA-MB-435, 180 nM; at Histone deacetylase, 45 nM. Also, the Activity with HCT-116 [7] is 44%; in the series on HCT-116 [8], 25%. The “fold change (FC)” value with Mus musculus [9] was determined as 12; with Mus musculus [10] it was 9.

As to `COc1ccc(S(=O)(=O)Nc2ccc(C(=O)CSC(C)=O)cn2)cc1`, the figures for the EC50 in the series with HCT-116 [1] and at Histone deacetylase were 540 nM and 29 nM, respectively.

For the molecule `Br.CC(=O)SCC(=O)c1ccc(NS(=O)(=O)c2ccc(OCCCN(C)C)cc2)nc1`, the EC50 is above 30000 nM in [3]; above 50000 nM at Cytochrome P450 2C9; above 50000 nM on Cytochrome P450 2C19; above 50000 nM on Cytochrome P450 2D6; above 50000 nM at Cytochrome P450 1A2. The concentration in solution in series [5] (solubility) was 10000 µg/mL.

As to `CC(=O)SCC(=O)c1ccc(NS(=O)(=O)c2ccc(OCCCN3CCCCC3)cc2)nc1`, the EC50 in the series on HCT-116 [1] worked out at 1000 nM; in [2], 800 nM; at Histone deacetylase, 53 nM.

Consider `CC(=O)SCC(=O)c1ccc(NS(=O)(=O)c2ccc(OCc3ccccn3)cc2)nc1`, for which the EC50 with HCT-116 [1] is 420 nM; on Histone deacetylase it was 220 nM.

In the case of `CC(=O)SCC(=O)c1ccc(NS(=O)(=O)c2ccc(OCCCN(C)C)cc2)nc1` [listing 2 of 2 here], the result with Mus musculus [11] and with Mus musculus [12] was Active.

As for `CC(=O)SCC(=O)c1ccc(NS(=O)(=O)c2ccc(OC3CCN(C)CC3)cc2)nc1`, the EC50 came out at 180 nM with HCT-116 [1], 300 nM in [2] and 44 nM at Histone deacetylase.

These data come from ChEMBL document CHEMBL1152294, “Identification of KD5170: a novel mercaptoketone-based histone deacetylase inhibitor” (Bioorg Med Chem Lett, 2008).
